# Like-named read-outs stand apart in the source and are kept apart here.
# Columns and labels:
# gut microbiota = test system: gut microbiota; set-up: species or system C57BL/6 mice; conditions: mouse, in vivo, po, 10 mg/kg
# Protocol: CAIs had no major impact on microbiota composition. An extremely promising and innovative feature of CAIs is their narrow spectrum of activity and their ability to decolonize VRE without harming the microbiome. […] To characterize the impact of CAIs administration on the composition of the gut microbiota we performed the following assay6. Female 12-week-old C57BL/6 mice (n=5 mice per group) were exposed to CAIs by oral gavage for 10 days (10 mg/kg daily). Twenty-four hours after last dose, mice were euthanized and cecal and colon contents were harvested. The microbiome was characterized using 16S rDNA gene sequencing. The microbiotas from treated mice were compared to those from a group of control mice. […] However, at the phylum level, we observed decrease in Firmicutes in CAIs treatment groups and likely due to decrease of enterococci as enterococcus is a large genus of the phylum Firmicutes. The Verrucomicrobia and Bacteroidetes remain constant while other phyla increase to fill the remaining percentage from Firmicute loss. […] Indeed, the use of traditional antibiotics can increase the selective pressure and contribute to the selection of other multi-drug-resistant organisms (Kofteridis D. et al., Int J Infect Dis 2009, 13, e313-315).
# [1] = test system: Enterococcus faecalis S613 HM-334; assay: MIC, broth microdilution (CLSI); assay type: cell-based; conditions: Enterococcus faecalis
# Protocol: (§1) The minimum inhibitory concentrations (MICs) of the compounds and control drugs were determined using the broth microdilution method, according to guidelines outlined by the Clinical and Laboratory Standards Institute (CLSI). Enterococci strains were grown aerobically overnight on tryptone soya agar plates at 37° C., afterwards a bacterial solution equivalent to 0.5 McFarland standard was prepared and diluted in tryptone soy broth (TSB) to achieve a bacterial concentration of about 5×10^5 CFU/mL and seeded in 96-well well plates. Compounds and control drugs were added in the first row of the 96-well plates and serially diluted along the plates. Plates were then incubated aerobically at 37° C. for 18-20 hours. MICs reported in Table 1 are the minimum concentration of the compounds/control drugs that could inhibit completely the visual growth of the bacteria.
# (§2) The minimum inhibitory concentrations (MICs) of CAIs were tested against clinical isolates of vancomycin sensitive and vancomycin resistant Enterococci strains as per the guidelines provided by the Clinical and Laboratory Standards Institute (CLSI). The selected strains of Enterococci were streaked on Tryptic Soy Agar (TSA) plates and let grow for 24 hours at 37° C. Afterwards, a bacterial solution equivalent to 0.5 McFarland standard was prepared and diluted in tryptone soy broth (TSB) or brain heart infusion broth (BHIB) to achieve a bacterial concentration of about 5×10^5 CFU/mL and seeded in 96-well well plates. Compounds and control drugs were added in the first row of the 96-well plates and serially diluted along the plates. Plates were then incubated aerobically at 37° C. for 18-20 hours. MICs reported in Table 5 are the minimum concentration of the compounds/control drugs that could inhibit completely the visual growth of the bacteria.
# The minimum inhibitory concentrations (MICs) of CAIs were tested against vancomycin resistant Enterococcus faecalis—S613 HM 334 strain as per the guidelines provided by the Clinical and Laboratory Standards Institute (CLSI). The selected strain was streaked on Tryptic Soy Agar (TSA) plate and let grow for 24 hours at 37° C. […] Compounds and control drugs were added in the first row of the 96-well plates and serially diluted along the plates. Plates were then incubated aerobically at 37° C. for 18-20 hours. MICs reported in table (6) are the minimum concentration of the compounds/control drugs that could inhibit completely the visual growth of the bacteria.
# [2] = test system: Enterococcus fecalis Strain MMH594 - NR31975; assay: microbe, parasite or virus in culture; assay type: cell-based; conditions: Table 7; TSB
# Protocol: as §1
# [3] = test system: Bifidobacterium breve JCP7499 HM 1120; assay: MIC against human normal gut microbiota; assay type: cell-based
# Protocol: (§3) Three different bacterial strains were used in this experiment; Bifidobacterium (anaerobic Gram positive bacteria), Bacteroides (anaerobic Gram negative bacteria) and Lactobacillus (microaerophilic Gram positive bacteria). Bifidobacterium and Bacteroides were first grown for 48 hours at 37° C., anaerobically using brain heart infusion supplemented (BHIS) agar (Brain heart infusion agar supplemented with hemin, vitamin K and L-cysteine). Lactobacillus was cultivated on MRS agar and incubated in presence of 5% CO2 for 48 hours at 37° C. Each bacterium was suspended in phosphate buffered saline (PBS) to produce a suspension with optical density that matches 0.5 McFarland standard and diluted in brain heart infusion supplemented broth (for Bifidobacterium and Bacteroides) or in MRS broth (for Lactobacillus) to achieve bacterial concentration of approximately 5×10^5 CFU/ml. Bacteria were then seeded in 96-well plates containing serial dilutions of the compounds and incubated as mentioned previously for 48 hours.
# [4] = test system: Bacteroides dorei CL02T12C06 HM-719; assay: MIC against human normal gut microbiota; assay type: cell-based; conditions: Phocaeicola dorei
# Protocol: as §3
# [5] = test system: Bacteroides fragilis CL07T00C01 HM-709; assay: MIC against human normal gut microbiota; assay type: cell-based
# Protocol: as §3
# [6] = test system: Enterococcus fecalis Strain SF 24397 NR31970; assay: MIC, broth microdilution (CLSI); assay type: cell-based
# Protocol: as §1, §2
# [7] = test system: Enterococcus faecium Patient #3-1 NR-31912; assay: MIC, broth microdilution (CLSI); assay type: cell-based; conditions: Table 7; TSB
# Protocol: as §1
# [8] = test system: Enterococcus fecalis Strain SF24413 NR31971; assay: MIC, broth microdilution (CLSI); assay type: cell-based; conditions: Table 7; TSB
# Protocol: as §1
# [9] = test system: Enterococcus fecalis Strain SF 28073 - NR31972; assay: MIC, broth microdilution (CLSI); assay type: cell-based; conditions: Table 7; TSB
# Protocol: as §1
# E. faecium NR 31909 = conditions: oral 20 mg/kg daily for 4 days
# Source text: Saline was used as a negative control. Mice were euthanized on day 5 and organs (liver, spleen and kidneys) were aseptically removed and homogenized, and viable VRE were enumerated by serial dilution and plating.
# [10] = test system: vancomycin-resistant E. faecium; assay: Mouse model of GI colonization by VRE; assay type: in vivo, C57BL/6 mice
# Source text: Feasibility in vivo study: AZM reduces VRE load in the intestines and faeces. The promising feature, and the specific and potent antimicrobial activity of CAIs, prompted us to evaluate the in vivo efficacy of AZM in our established mouse model of GI colonization by enterococci with features that mimic the antibiotic-induced enterococcal expansion observed in humans (Mohammad, H. et al., Int J Antimicrob Agents 2018, 51, 897-904; Abdelkhalek, A, et al., PLoS One 2018, 13, e0199710). We tested AZM (two clinical doses 10 and 20 mg/kg) in female 12-week-old C57BL/6 mice (n=5 mice per group) that were sensitized with ampicillin ([…] in drinking water) for 7 days to reduce the microbiota present in the gastrointestinal tract and colonized with 10^8 CFU/mL of vancomycin-resistant E. faecium.
# We thought that the rapid absorption of AZM from the gastrointestinal tract would limit their exposure time to VRE present in the gastrointestinal tract.
# Mice were treated for 8 days with 10 mg/kg of drugs by oral gavage.
# [11] = assay type: in vivo; conditions: 200 mg/kg twice daily (400 mg/kg daily) for three days
# [12] = S613HM334, Table 5, BHIB, read-out: MIC
# [13] = S613HM334, Table 5, TSB, read-out: MIC
# [14] = S613HM334, Table 6, TSB in presence of 4% human serum albumin, read-out: MIC
# [15] = Table 3, BHIS broth, anaerobic, 48 hours, read-out: MIC
compound,measurement,setting,value
CCN[C@H]1C[C@H](C)S(=O)(=O)c2sc(S(N)(=O)=O)cc21 [Dorzolamide],taxonomic structure and composition of microbiota,gut microbiota,no major shift or change
same,MIC,[1]; [12],> 128 mg/L
same,MIC,[1]; [13],8 mg/L
same,MIC,[1]; [14],> 256 mg/L
"CN[C@H](CC(C)C)C(=O)N[C@H]1C(=O)N[C@@H](CC(N)=O)C(=O)N[C@H]2C(=O)N[C@H]3C(=O)N[C@H](C(=O)N[C@H](C(=O)O)c4cc(O)cc(O)c4-c4cc3ccc4O)[C@H](O)c3ccc(c(Cl)c3)Oc3cc2cc(c3O[C@@H]2O[C@H](CO)[C@@H](O)[C@H](O)[C@H]2O[C@H]2C[C@](C)(N)[C@H](O)[C@H](C)O2)Oc2ccc(cc2Cl)[C@H]1O [Vancomycin, reference compound]",MIC,[2],2 mg/L
same,MIC,"[1]; S613HM334, Table 1, TSB",> 64 mg/L
same,MIC,"[1]; S613HM334, Table 5, BHIB",> 128 mg/L
same,MIC,"[1]; S613HM334, Table 5, TSB",> 128 mg/L
same,MIC,"[1]; S613HM334, Table 7, TSB",> 64 mg/L
same,MIC,"[3]; JCP7499HM1120, 48 h",8 mg/L
same,MIC,[4]; 48 h,64 mg/L
same,MIC,[5]; 48 h,64 mg/L
same,MIC,"[6]; Table 5, BHIB",2 mg/L
same,MIC,"[6]; Table 5, TSB",2 mg/L
same,MIC,"[6]; Table 7, TSB",2 mg/L
same,MIC,[7],>64 mg/L
same,MIC,[8],32 mg/L
same,MIC,[9],>64 mg/L
CC(=O)Nc1nnc(S(N)(=O)=O)s1 [Acetazolamide],MIC,"[1]; S613HM334, Table 1, TSB, read-out: MIC",2 mg/L
same,MIC,[1]; [12],> 128 mg/L
same,MIC,[1]; [13],2 mg/L
same,MIC,[1]; [14],> 256 mg/L
same,MIC,"[1]; S613HM334, Table 7, TSB, read-out: MIC",2 mg/L
same,MIC,"[3]; JCP7499HM1120, Table 3, BHIS broth, anaerobic, 48 hours, read-out: MIC",> 64 mg/L
same,MIC,[4]; [15],> 64 mg/L
same,MIC,[5]; [15],> 64 mg/L
same,mice protected against a lethal dose (survival),E. faecium NR 31909,100%
same,reduction of bacterial load in internal organs compared with linezolid,"E. faecium NR 31909; liver, spleen, kidneys on day 5",superior to linezolid
same,"VRE in feces, cecal content and ileal content compared to control mice","[10]; 10 mg/kg or 20 mg/kg once a day, feces as early as 3rd day",significant reduction
same,VRE reduction compared with linezolid,"[10]; AZM 10 and 20 mg/kg, linezolid 10 mg/kg once daily for 8 days",outperformed linezolid
NS(=O)(=O)c1nnc(NCc2ccccc2C(F)(F)F)s1 [analog 8],survival,[11],all the mice survived
same,"reduction of VRE in the feces, cecum and ileum compared with AZM and linezolid","[10]; 10 mg/kg oral gavage for 8 days, feces as early as 3rd day",superior to AZM and linezolid

# Source: patent US20250328351A1, “CARBONIC ANHYDRASE INHIBITORS AND ANTIBIOTICS AGAINST MULTIDRUG RESISTANT BACTERIA” (Purdue Research Foundation, priority 2018, published 2025)
